Source: ChEMBL document CHEMBL3243984, “Methotrexate analogues. 11. Unambiguous chemical synthesis and in vitro biological evaluation of alpha- and gamma-monoesters as potential prodrugs” (J Med Chem, 1978)

How the values were obtained:
CCRF-CEM = experiment: Growth inhibition of human CCRF-CEM cells; format: functional
[1] = molecular target: T1, Dihydrofolate reductase (Oryctolagus cuniculus) (UniProt C1JLF0); experiment: Inhibition of rabbit liver dihydrofolate reductase using [3H]-folic acid after 10 mins by scintillation counting
T1 sequence (whole entry): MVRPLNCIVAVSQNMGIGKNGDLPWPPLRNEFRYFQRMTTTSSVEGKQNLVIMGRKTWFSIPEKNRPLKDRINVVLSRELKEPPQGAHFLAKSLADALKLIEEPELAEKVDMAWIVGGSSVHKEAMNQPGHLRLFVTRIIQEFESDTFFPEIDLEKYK

Serum [2] = experiment: Drug metabolism in mouse serum assessed as parent compound level at 0.006 g after 2 hrs by TLC analysis; format: ADME, cell-free
Serum [3] = experiment: Drug metabolism in mouse serum assessed as parent compound level at 0.006 g after 6 hrs by TLC analysis; format: ADME, cell-free
[4] = Drug metabolism in mouse serum assessed as parent compound level at 0.006 g after 24 hrs by TLC analysis; format: ADME, cell-free; details: read-out: Drug metabolism
[5] = Drug metabolism in mouse serum assessed as parent compound level at 0.006 g after 48 hrs by TLC analysis; format: ADME, cell-free; details: read-out: Drug metabolism
[6] = Drug metabolism in monkey serum assessed as parent compound level at 0.006 g after 2 hrs by TLC analysis; format: ADME, cell-free, Macaca mulatta; details: rhesus monkey, read-out: Drug metabolism
[7] = Drug metabolism in monkey serum assessed as parent compound level at 0.006 g after 6 hrs by TLC analysis; format: ADME, cell-free, Macaca mulatta; details: rhesus monkey, read-out: Drug metabolism
[8] = Drug metabolism in monkey serum assessed as parent compound level at 0.006 g after 24 hrs by TLC analysis; format: ADME, cell-free, Macaca mulatta; details: rhesus monkey, read-out: Drug metabolism
[9] = Drug metabolism in monkey serum assessed as parent compound level at 0.006 g after 48 hrs by TLC analysis; format: ADME, cell-free, Macaca mulatta; details: rhesus monkey, read-out: Drug metabolism
[10] = Drug metabolism in human serum assessed as parent compound level at 0.006 g after 2 hrs by TLC analysis; format: ADME, cell-free; details: read-out: Drug metabolism
[11] = Drug metabolism in human serum assessed as parent compound level at 0.006 g after 6 hrs by TLC analysis; format: ADME, cell-free; details: read-out: Drug metabolism
[12] = Drug metabolism in human serum assessed as parent compound level at 0.006 g after 24 hrs by TLC analysis; format: ADME, cell-free; details: read-out: Drug metabolism
[13] = Drug metabolism in human serum assessed as parent compound level at 0.006 g after 48 hrs by TLC analysis; format: ADME, cell-free; details: read-out: Drug metabolism
Serum [14] = experiment: Drug metabolism in rat serum assessed as DBMTX level at 0.006 g after 2 hrs by TLC analysis; format: ADME, cell-free
Serum [15] = experiment: Drug metabolism in rat serum assessed as DBMTX level at 0.006 g after 6 hrs by TLC analysis; format: ADME, cell-free
Serum [16] = experiment: Drug metabolism in rat serum assessed as DBMTX level at 0.006 g after 24 hrs by TLC analysis; format: ADME, cell-free
Serum [17] = experiment: Drug metabolism in rat serum assessed as DBMTX level at 0.006 g after 48 hrs by TLC analysis; format: ADME, cell-free
Serum [18] = experiment: Drug metabolism in rat serum assessed as MBMTX level at 0.006 g after 2 hrs by TLC analysis; format: ADME, cell-free
Serum [19] = experiment: Drug metabolism in rat serum assessed as MBMTX level at 0.006 g after 6 hrs by TLC analysis; format: ADME, cell-free
Serum [20] = experiment: Drug metabolism in rat serum assessed as MBMTX level at 0.006 g after 24 hrs by TLC analysis; format: ADME, cell-free
Serum [21] = experiment: Drug metabolism in rat serum assessed as MBMTX level at 0.006 g after 48 hrs by TLC analysis; format: ADME, cell-free
Serum [22] = experiment: Drug metabolism in rat serum assessed as parent compound level at 0.006 g after 2 hrs by TLC analysis; format: ADME, cell-free
Serum [23] = experiment: Drug metabolism in rat serum assessed as parent compound level at 0.006 g after 6 hrs by TLC analysis; format: ADME, cell-free
Serum [24] = experiment: Drug metabolism in rat serum assessed as parent compound level at 0.006 g after 24 hrs by TLC analysis; format: ADME, cell-free
Serum [25] = experiment: Drug metabolism in rat serum assessed as parent compound level at 0.006 g after 48 hrs by TLC analysis; format: ADME, cell-free
Serum [26] = experiment: Drug metabolism in human serum assessed as MTX alpha-monobutyl ester level at 150 mg after 72 hrs by HPLC analysis; format: ADME, cell-free
Serum [27] = experiment: Drug metabolism in human serum assessed as MTX gamma-monobutyl ester level at 150 mg after 72 hrs by HPLC analysis; format: ADME, cell-free
Serum [28] = experiment: Retention time in human serum at 150 mg after 72 hrs by HPLC analysis; format: ADME, cell-free

CCOC(=O)CC[C@H](NC(=O)c1ccc(N(C)Cc2cnc3nc(N)nc(N)c3n2)cc1)C(=O)OCC
ID50 (CCRF-CEM): 0.012 ×10⁻⁶ mol/L

CCCCOC(=O)CC[C@H](NC(=O)c1ccc(N(C)Cc2cnc3nc(N)nc(N)c3n2)cc1)C(=O)OCCCC
ID50 (CCRF-CEM): 0.057 ×10⁻⁶ mol/L
ID50 [1]: 1.4 ×10⁻⁷ mol/L
Drug metabolism (Serum [2]): 43%
Drug metabolism (Serum [3]): 46%
remaining at 24 h [4]: 89%
remaining at 48 h [5]: 93%
remaining at 2 h [6]: < 1%
remaining at 6 h [7]: < 1%
remaining at 24 h [8]: < 1%
remaining at 48 h [9]: 2%
remaining at 2 h [10]: < 1%
remaining at 6 h [11]: < 1%
remaining at 24 h [12]: 1%
remaining at 48 h [13]: < 1%
Drug metabolism (Serum [14]): metabolite_detected
Drug metabolism (Serum [15]): metabolite_detected
Drug metabolism (Serum [16]): metabolite_detected
Drug metabolism (Serum [17]): metabolite_detected
Drug metabolism (Serum [18]): metabolite_detected
Drug metabolism (Serum [19]): metabolite_detected
Drug metabolism (Serum [20]): metabolite_detected
Drug metabolism (Serum [21]): metabolite_detected
Drug metabolism (Serum [22]): metabolite_detected
Drug metabolism (Serum [23]): metabolite_detected
Drug metabolism (Serum [24]): metabolite_detected
Drug metabolism (Serum [25]): metabolite_detected
Drug metabolism (Serum [26]): metabolite_detected
Drug metabolism (Serum [27]): metabolite_detected

COC(=O)CC[C@H](NC(=O)c1ccc(N(C)Cc2cnc3nc(N)nc(N)c3n2)cc1)C(=O)OC
ID50 (CCRF-CEM): 0.4 ×10⁻⁶ mol/L

CCOC(=O)CC[C@H](NC(=O)c1ccc(N(C)Cc2cnc3nc(N)nc(N)c3n2)cc1)C(=O)O
ID50 (CCRF-CEM): 0.58 ×10⁻⁶ mol/L

CCOC(=O)[C@H](CCC(=O)O)NC(=O)c1ccc(N(C)Cc2cnc3nc(N)nc(N)c3n2)cc1
ID50 (CCRF-CEM): 6.2 ×10⁻⁶ mol/L

CCCCOC(=O)CC[C@H](NC(=O)c1ccc(N(C)Cc2cnc3nc(N)nc(N)c3n2)cc1)C(=O)O
ID50 (CCRF-CEM): 0.76 ×10⁻⁶ mol/L
ID50 [1]: 1.7 ×10⁻⁸ mol/L
Retention_time (Serum [28]): 3.2 min

CCCCOC(=O)[C@H](CCC(=O)O)NC(=O)c1ccc(N(C)Cc2cnc3nc(N)nc(N)c3n2)cc1
ID50 (CCRF-CEM): 2 ×10⁻⁶ mol/L
ID50 [1]: 1.7 ×10⁻⁸ mol/L
Retention_time (Serum [28]): 5.1 min

COC(=O)CC[C@H](NC(=O)c1ccc(N(C)Cc2cnc3nc(N)nc(N)c3n2)cc1)C(=O)O
ID50 (CCRF-CEM): 0.43 ×10⁻⁶ mol/L

CN(Cc1cnc2nc(N)nc(N)c2n1)c1ccc(C(=O)N[C@@H](CCC(=O)O)C(=O)O)cc1 [METHOTREXATE]
ID50 (CCRF-CEM): 0.006 ×10⁻⁶ mol/L
ID50 [1]: 9 ×10⁻⁹ mol/L
Retention_time (Serum [28]): 2 min
